Laboratory results as given in publication PMC8728392, “Synthesis, Anticancer Assessment, and Molecular Docking of Novel Chalcone-Thienopyrimidine Derivatives in HepG2 and MCF-7 Cell Lines” (Oxidative Medicine and Cellular Longevity, 2021).

What was measured:
[1] = tested on: human liver cancer cell line (HepG2); assay: MTT assay, cytotoxicity; assay type: cell-based; conditions: HepG2; for survival percentage (mean ± SEM): 24 hours
Protocol: (§1) Cancer cell lines were manipulated according to the method described by Sigounas et al.. In this method, the cell lines were grown as adherent monolayers in T75 flasks with Dulbecco's modified Eagle's medium (DMEM) supplemented with 10% Fetal Bovine Serum (FBS), 2 mM L-glutamine, and 1% streptomycin/penicillin. The cells were left to grow in a CO2 incubator at 37°C, 5% CO2, and 95% humidity until their confluence.
(§2) The 3-[4,5-dimethylthiazol-2-yl]-2,5-diphenyltetrazolium bromide (MTT) colorimetric assay was used to examine the sensitivity of cells to tested compounds (as anticancer drugs), as previously described. This assay depends on the production of a purple formazan derivative from the yellow tetrazolium bromide (MTT) by mitochondrial succinate dehydrogenase in viable cells. The percentage of cell survival was calculated as follows: (1) Percentage of survival=O.D.treated cells/O.D.control cells×100.
(§3) For preliminary screening of the cytotoxicity of synthesized compounds 3a-g, cells exposed to DMSO were used as a control. Plotting the relationship between the survival score and the compound concentration and calculating the IC50 (the concentration required to inhibit cell viability by 50%) were performed for each test compound according to Li et al. in comparison with the reference standard anticancer agent, 5-FU.
(§4) The 3-[4,5-dimethylthiazol-2-yl]-2,5-diphenyltetrazolium bromide (MTT) colorimetric assay was used to examine the sensitivity of cells to tested compounds (as anticancer drugs), as previously described by Hussein et al. (2017). This assay depend on the production of a purple formazan derivative from the yellow tetrazolium bromide (MTT) by mitochondrial succinate dehydrogenase in viable cells. Briefly, after harvesting the cells with 0.25% trypsin, the cell lines were suspended in DMEM. Cells were seeded in 96-well microtiter plates at a concentration of 5×10^4 cell/well in a fresh medium and left to attach to the plates for 24 h before treatment with the tested compounds 3a-g. Test compounds were dissolved in dimethyl sulfoxide (DMSO). After 24 hours, cells were incubated with the appropriate concentration ranges of compounds, the wells were diluted to […] with fresh medium and incubation was continued for 24 hours. Three wells were used for each concentration. After 24 hours of treatment, 20 μl of MTT solution (5mg/ml) was added and subsequently the plates were further incubated for 4 hours to allow the viable cells to biotransform the yellow-colored MTT into purple formazan crystals. The optical density (O.D.) of each well was measured spectrophotometrically at […] with an enzyme-linked immunosorbent assay (ELISA) microplate reader (BioTek, EL-800, USA). The percentage of cell survival was calculated as follows: […]

[2] = tested on: human breast cancer cell line (MCF-7); assay: MTT assay, cytotoxicity; assay type: cell-based; conditions: MCF-7; for survival percentage (mean ± SEM): 24 hours
Protocol: as §1, §2, §3, §4

HepG2 cell line = assay: Cell cycle analysis (PI, flow cytometry); assay type: cell-based, human
Protocol: Cell cycle analysis was performed to decide if the newly synthesized thienopyrimidine derivatives arrested the cell cycle and at what phase of the cell cycle, the HepG2 and MCF-7 cell lines were arrested. The experiments were performed as previously described by Tolba et al.. HepG2 and MCF-7 cell lines were seeded and incubated with the tested compounds in 6-well plates. After incubation overnight, the cells were washed twice with ice-cold phosphate-buffered saline (PBS), detached by EDTA-trypsinization from the plates, harvested by centrifugation, fixed in ice-cold 70% (v/v) ethanol, and washed with phosphate-buffered saline (PBS, pH 7.2 ± 0.2). The cells were resuspended with 0.1 mg/ml RNase, stained with […] propidium iodide (PI), and analyzed by flow cytometry using a FACSCalibur flow cytometer (BD Biosciences, San Jose, CA). CellQuest software (Becton Dickinson) was used to determine the cell cycle distributions after incubation with 5-FU or tested compounds. Exposure of HepG2 and MCF-7 cell lines to these compounds could interfere with the normal cell cycle distribution.

Compound | melting point [°C] | survival percentage (mean ± SEM) ([1]; 4.8828125 μg/ml) [%] | survival percentage (mean ± SEM) ([1]; 9.765625 μg/ml) [%] | survival percentage (mean ± SEM) ([1]; 19.53125 μg/ml) [%] | survival percentage (mean ± SEM) ([1]; 39.0625 μg/ml) [%] | survival percentage (mean ± SEM) ([1]; 78.125 μg/ml) [%] | survival percentage (mean ± SEM) ([1]; 156.25 μg/ml) [%] | survival percentage (mean ± SEM) ([1]; 312.5 μg/ml) [%] | survival percentage (mean ± SEM) ([1]; 625 μg/ml) [%] | survival percentage (mean ± SEM) ([1]; 1250 μg/ml) [%] | survival percentage (mean ± SEM) ([1]; 2500 μg/ml) [%] | survival percentage (mean ± SEM) ([1]; 5000 μg/ml) [%] | survival percentage (mean ± SEM) ([1]; 10000 μg/ml) [%] | survival percentage (mean ± SEM) ([2]; 4.8828125 μg/ml) [%] | survival percentage (mean ± SEM) ([2]; 9.765625 μg/ml) [%] | survival percentage (mean ± SEM) ([2]; 19.53125 μg/ml) [%] | survival percentage (mean ± SEM) ([2]; 39.0625 μg/ml) [%] | survival percentage (mean ± SEM) ([2]; 78.125 μg/ml) [%] | survival percentage (mean ± SEM) ([2]; 156.25 μg/ml) [%] | survival percentage (mean ± SEM) ([2]; 312.5 μg/ml) [%] | further results
CCOC(=O)Cn1c(SCC(=O)Nc2ccc(C(=O)/C=C\c3cccc([N+](=O)[O-])c3)cc2)nc2sc3c(c2c1=O)CCN(C(=O)OCC)C3 [Compound 3c, Ethyl (Z)-3-(2-Ethoxy-2-oxoethyl)-2-((2-((4-(3-(3-nitrophenyl)acryloyl)phenyl)amino)-2-oxoethyl)thio)-4-oxo-3,5,6,8-tetrahydropyrido[4′,3′:4,5]thieno[2,3-d]pyrimidine-7(4H)-carboxylate] | 189 to 190 | 91.5 ± 0.013 | 81.6 ± 0.027 | 69.8 ± 0.027 | 63.0 ± 0.030 | 62.4 ± 0.051 | 22.1 ± 0.011 | 21.1 ± 0.004 | 20.6 ± 0.003 | 20.1 ± 0.004 | 19.0 ± 0.002 | 18.8 ± 0.001 | 18.0 ± 0.001 | 149.3 ± 0.082 | 135.4 ± 0.066 | 140.3 ± 0.197 | 132.0 ± 0.136 | 121.5 ± 0.183 | 110.9 ± 0.063 | 71.1 ± 0.156 | survival percentage (mean ± SEM) ([2]; 625 μg/ml): 11.3 ± 0.026%; survival percentage (mean ± SEM) ([2]; 1250 μg/ml): 7.4 ± 0.003%; survival percentage (mean ± SEM) ([2]; 2500 μg/ml): 6.4 ± 0.003%; survival percentage (mean ± SEM) ([2]; 5000 μg/ml): 6.4 ± 0.007%; survival percentage (mean ± SEM) ([2]; 10000 μg/ml): 5.9 ± 0.002%; G1 phase cell population (HepG2 cell line): significant increase; %DIP G1 (HepG2 cell line; flow cytometry panel): 55.32%
CCOC(=O)N1CCc2c(sc3nc(SCC(=O)Nc4ccc(C(=O)/C=C\c5cc(OC)c(OC)c(OC)c5)cc4)[nH]c(=O)c23)C1 [Compound 3e, Ethyl (Z)-4-Oxo-2-((2-oxo-2-((4-(3-(3,4,5-trimethoxyphenyl)acryloyl)phenyl)amino)ethyl)-thio)-3,5,6,8-tetrahydropyrido[4′,3′:4,5]thieno[2,3-d]pyrimidine-7(4H)-carboxylate] | 167 to 168 | 127.5 ± 0.033 | 114.3 ± 0.141 | 91.9 ± 0.060 | 45.1 ± 0.072 | 21.4 ± 0.073 | 21.1± 0.012 | 19.8 ± 0.005 | 18.9 ± 0.001 | 18.4 ± 0.003 | 17.4 ± 0.002 | 16.8 ± 0.003 | 14.1 ± 0.002 | 147.1 ± 0.051 | 131.6 ± 0.132 | 123.4 ± 0.070 | 129.1 ± 0.033 | 109.2 ± 0.084 | 104.2 ± 0.026 | 61.5 ± 0.112 | survival percentage (mean ± SEM) ([2]; 625 μg/ml): 38.0 ± 0.030%; survival percentage (mean ± SEM) ([2]; 1250 μg/ml): 27.8 ± 0.021%; survival percentage (mean ± SEM) ([2]; 2500 μg/ml): 17.9 ± 0.002%; survival percentage (mean ± SEM) ([2]; 5000 μg/ml): 16.0 ± 0.000%; survival percentage (mean ± SEM) ([2]; 10000 μg/ml): 15.9 ± 0.002%; cell population in G2/M compared with control cells (HepG2 cell line): substantial increase; cell population in pre-G1 phases compared with control cells (HepG2 cell line): significant increase
CCOCc1nc2sc3c(c2c(=O)n1CC(=O)Nc1ccc(C(=O)/C=C\c2cccc([N+](=O)[O-])c2)cc1)CCN(C(=O)OCC)C3 [Compound 3f, Ethyl (Z)-2-(Ethoxymethyl)-3-(2-((4-(3-(3-nitrophenyl)acryloyl)phenyl)amino)-2-oxoethyl)-4-oxo-3,5,6,8-tetrahydropyrido[4′,3′:4,5]thieno[2,3-d]pyrimidine-7(4H)-carboxylate] | 178 to 179 | 149.7 ± 0.200 | 149.1 ± 0.106 | 144.7 ± 0.140 | 119.1 ± 0.122 | 115.9 ± 0.157 | 112.0 ± 0.460 | 77.8 ± 0.071 | 15.3 ± 0.005 | 12.6 ± 0.019 | 11.7 ± 0.009 | 11.6 ± 0.002 | 10.7 ± 0.004 | 149.7 ± 0.082 | 132.2 ± 0.214 | 127.7 ± 0.180 | 122.6 ± 0.121 | 120.2 ± 0.150 | 119.7 ± 0.182 | 92.0 ± 0.141 | cytotoxic activity (in words) [1]: lowest cytotoxic activity; cytotoxic activity (in words) [2]: lowest cytotoxic activity; survival percentage (mean ± SEM) ([2]; 625 μg/ml): 67.1 ± 0.086%; survival percentage (mean ± SEM) ([2]; 1250 μg/ml): 47.5 ± 0.181%; survival percentage (mean ± SEM) ([2]; 2500 μg/ml): 6.2 ± 0.004%; survival percentage (mean ± SEM) ([2]; 5000 μg/ml): 5.1 ± 0.003%; survival percentage (mean ± SEM) ([2]; 10000 μg/ml): 4.6 ± 0.002%
